# From ChEMBL document CHEMBL1221236, “Discovery of a factor Xa inhibitor (3R,4R)-1-(2,2-difluoro-ethyl)-pyrrolidine-3,4-dicarboxylic acid 3-[(5-chloro-pyridin-2-yl)-amide] 4-[[2-fluoro-4-(2-oxo-2H-pyridin-1-yl)-phenyl]-amide] as a clinical candidate” (Bioorg Med Chem Lett, 2010)
# Tested on: not listed separately
# Assay: Lipophilicity, log D of the compound at pH 7.4
# Assay type: physicochemical
# Conditions: buffer; call rule not given here
row,logD,Structure (SMILES)
1,2.43,COC(=O)N1C[C@H](C(=O)Nc2ccc(Cl)cc2)[C@@H](C(=O)Nc2ccc(-n3ccccc3=O)cc2F)C1
2,2.69,O=C(Nc1ccc(Cl)cc1)[C@H]1CN(CC(F)F)C[C@@H]1C(=O)Nc1ccc(-n2ccccc2=O)cc1F
3,1.8,CC(=O)N1C[C@H](C(=O)Nc2ccc(Cl)cc2)[C@@H](C(=O)Nc2ccc(-n3ccccc3=O)cc2F)C1
4,0.63,O=C(Nc1ccc(Cl)cn1)[C@H]1CNC[C@@H]1C(=O)Nc1ccc(-n2ccccc2=O)cc1F
5,2.37,CS(=O)(=O)N1C[C@H](C(=O)Nc2ccc(Cl)c(F)c2)[C@@H](C(=O)Nc2ccc(-n3ccccc3=O)cc2F)C1
6,1.86,CC(C)N1C[C@H](C(=O)Nc2ccc(Cl)cn2)[C@@H](C(=O)Nc2ccc(-n3ccccc3=O)cc2F)C1
7,2.57,CCOC(=O)N1C[C@H](C(=O)Nc2ccc(Cl)cc2)[C@@H](C(=O)Nc2ccc(-n3ccccc3=O)cc2F)C1
8,1.77,CCS(=O)(=O)N1C[C@H](C(=O)Nc2ccc(Cl)cn2)[C@@H](C(=O)Nc2ccc(-n3ccccc3=O)cc2F)C1
9,1.19,COc1ccc(NC(=O)[C@H]2CN(S(C)(=O)=O)C[C@@H]2C(=O)Nc2ccc(-n3ccccc3=O)cc2F)cc1
10,1.83,NS(=O)(=O)N1C[C@H](C(=O)Nc2ccc(Cl)cc2)[C@@H](C(=O)Nc2ccc(-n3ccccc3=O)cc2F)C1
11,1.46,CS(=O)(=O)N1C[C@H](C(=O)Nc2ccc(Cl)cn2)[C@@H](C(=O)Nc2ccc(-n3ccccc3=O)cc2F)C1
12,1.07,CS(=O)(=O)N1C[C@H](C(=O)Nc2ccc3[nH]ccc3c2)[C@@H](C(=O)Nc2ccc(-n3ccccc3=O)cc2F)C1
13,2.2,O=C(Nc1ccc(Cl)cn1)[C@H]1CN(CC(F)F)C[C@@H]1C(=O)Nc1ccc(-n2ccccc2=O)cc1F
14,2.02,COC(=O)N1C[C@H](C(=O)Nc2ccc(Cl)cn2)[C@@H](C(=O)Nc2ccc(-n3ccccc3=O)cc2F)C1
15,2.94,CCCS(=O)(=O)N1C[C@H](C(=O)Nc2ccc(Cl)cc2)[C@@H](C(=O)Nc2ccc(-n3ccccc3=O)cc2F)C1
16,3.2,O=C(Nc1ccc(Cl)cc1)[C@H]1CN(CC(F)(F)F)C[C@@H]1C(=O)Nc1ccc(-n2ccccc2=O)cc1F
17,0.56,COc1ccc(NC(=O)[C@H]2CN(S(C)(=O)=O)C[C@@H]2C(=O)Nc2ccc(-n3ccccc3=O)cc2F)cc1F
18,2.81,CC(C)S(=O)(=O)N1C[C@H](C(=O)Nc2ccc(Cl)cc2)[C@@H](C(=O)Nc2ccc(-n3ccccc3=O)cc2F)C1
19,2.36,CS(=O)(=O)N1C[C@H](C(=O)Nc2ccc(OC(F)(F)F)cc2)[C@@H](C(=O)Nc2ccc(-n3ccccc3=O)cc2F)C1
20,0.5,CS(=O)(=O)N1C[C@H](C(=O)Nc2ccc3[nH]ncc3c2)[C@@H](C(=O)Nc2ccc(-n3ccccc3=O)cc2F)C1
21,2.17,CS(=O)(=O)N1C[C@H](C(=O)Nc2ccc(Cl)cc2)[C@@H](C(=O)Nc2ccc(-n3ccccc3=O)cc2F)C1
22,3.06,CCCOC(=O)N1C[C@H](C(=O)Nc2ccc(Cl)cc2)[C@@H](C(=O)Nc2ccc(-n3ccccc3=O)cc2F)C1
23,2.78,O=C(Nc1ccc(Cl)cc1)[C@H]1CN(C(=O)N2CCCC2)C[C@@H]1C(=O)Nc1ccc(-n2ccccc2=O)cc1F
24,1.9,COc1ccc(NC(=O)[C@H]2CN(S(C)(=O)=O)C[C@@H]2C(=O)Nc2ccc(-n3ccccc3=O)cc2F)cc1Cl
25,1.8,O=C(Nc1ccc(Cl)cc1)[C@H]1CN(CCO)C[C@@H]1C(=O)Nc1ccc(-n2ccccc2=O)cc1F
26,2.68,O=C(Nc1ccc(Cl)cc1)[C@H]1CN(S(=O)(=O)CC(F)(F)F)C[C@@H]1C(=O)Nc1ccc(-n2ccccc2=O)cc1F
27,2.62,O=C(Nc1ccc(Cl)cn1)[C@H]1CN(CC(F)(F)F)C[C@@H]1C(=O)Nc1ccc(-n2ccccc2=O)cc1F
28,2.44,CCS(=O)(=O)N1C[C@H](C(=O)Nc2ccc(Cl)cc2)[C@@H](C(=O)Nc2ccc(-n3ccccc3=O)cc2F)C1
29,2.62,CN(C)S(=O)(=O)N1C[C@H](C(=O)Nc2ccc(Cl)cc2)[C@@H](C(=O)Nc2ccc(-n3ccccc3=O)cc2F)C1

# Tested on: not listed separately
# Assay: Clearance in cynomolgus monkey
# Assay type: ADME, organism-based, Macaca fascicularis
# Conditions: in vivo
row,clearance,Structure (SMILES)
1,17 mL/min/kg,CC(C)N1C[C@H](C(=O)Nc2ccc(Cl)cn2)[C@@H](C(=O)Nc2ccc(-n3ccccc3=O)cc2F)C1
2,5.5 mL/min/kg,CCS(=O)(=O)N1C[C@H](C(=O)Nc2ccc(Cl)cn2)[C@@H](C(=O)Nc2ccc(-n3ccccc3=O)cc2F)C1
3,6.4 mL/min/kg,O=C(Nc1ccc(Cl)cn1)[C@H]1CN(CC(F)F)C[C@@H]1C(=O)Nc1ccc(-n2ccccc2=O)cc1F
4,1.8 mL/min/kg,COC(=O)N1C[C@H](C(=O)Nc2ccc(Cl)cn2)[C@@H](C(=O)Nc2ccc(-n3ccccc3=O)cc2F)C1

# Tested on: not listed separately
# Assay: Permeability of the compound by PAMPA
# Assay type: ADME
# Conditions: read-out: permeability
row,Papp,Structure (SMILES)
1,0.46 ×10⁻⁶ cm/s,CS(=O)(=O)N1C[C@H](C(=O)Nc2ccc(Cl)cc2)[C@@H](C(=O)Nc2ccc(N3CCOCC3=O)cc2)C1

# Tested on: Phospholipidosis
# Assay: In vitro phospholipidosis
# Assay type: ADME, cell-based
# Conditions: human, hepg2
row,Structure (SMILES),Phospholipidosis
1,CC(C)N1C[C@H](C(=O)Nc2ccc(Cl)cn2)[C@@H](C(=O)Nc2ccc(-n3ccccc3=O)cc2F)C1,Active
2,CCS(=O)(=O)N1C[C@H](C(=O)Nc2ccc(Cl)cn2)[C@@H](C(=O)Nc2ccc(-n3ccccc3=O)cc2F)C1,Not Active
3,O=C(Nc1ccc(Cl)cn1)[C@H]1CN(CC(F)F)C[C@@H]1C(=O)Nc1ccc(-n2ccccc2=O)cc1F,Not Active
4,COC(=O)N1C[C@H](C(=O)Nc2ccc(Cl)cn2)[C@@H](C(=O)Nc2ccc(-n3ccccc3=O)cc2F)C1,Not Active

# Tested on: not listed separately
# Assay: Clearance in rat
# Assay type: ADME, organism-based
# Conditions: in vivo
row,clearance,Structure (SMILES)
1,4.2 mL/min/kg,CC(C)N1C[C@H](C(=O)Nc2ccc(Cl)cn2)[C@@H](C(=O)Nc2ccc(-n3ccccc3=O)cc2F)C1
2,1.3 mL/min/kg,CCS(=O)(=O)N1C[C@H](C(=O)Nc2ccc(Cl)cn2)[C@@H](C(=O)Nc2ccc(-n3ccccc3=O)cc2F)C1
3,2.1 mL/min/kg,O=C(Nc1ccc(Cl)cn1)[C@H]1CN(CC(F)F)C[C@@H]1C(=O)Nc1ccc(-n2ccccc2=O)cc1F
4,7.3 mL/min/kg,COC(=O)N1C[C@H](C(=O)Nc2ccc(Cl)cn2)[C@@H](C(=O)Nc2ccc(-n3ccccc3=O)cc2F)C1

# Tested on: not listed separately
# Assay: Volume of distribution at steady state in rat
# Assay type: ADME, organism-based
# Conditions: in vivo, read-out: Vdss
row,Vd,Structure (SMILES)
1,0.47 L/kg,CC(C)N1C[C@H](C(=O)Nc2ccc(Cl)cn2)[C@@H](C(=O)Nc2ccc(-n3ccccc3=O)cc2F)C1
2,0.04 L/kg,CCS(=O)(=O)N1C[C@H](C(=O)Nc2ccc(Cl)cn2)[C@@H](C(=O)Nc2ccc(-n3ccccc3=O)cc2F)C1
3,0.18 L/kg,O=C(Nc1ccc(Cl)cn1)[C@H]1CN(CC(F)F)C[C@@H]1C(=O)Nc1ccc(-n2ccccc2=O)cc1F
4,0.42 L/kg,COC(=O)N1C[C@H](C(=O)Nc2ccc(Cl)cn2)[C@@H](C(=O)Nc2ccc(-n3ccccc3=O)cc2F)C1

# Tested on: not listed separately
# Assay: Oral bioavailability in rat
# Assay type: ADME, organism-based
# Conditions: in vivo
row,bioavailability,Structure (SMILES)
1,39%,CC(C)N1C[C@H](C(=O)Nc2ccc(Cl)cn2)[C@@H](C(=O)Nc2ccc(-n3ccccc3=O)cc2F)C1
2,24%,CCS(=O)(=O)N1C[C@H](C(=O)Nc2ccc(Cl)cn2)[C@@H](C(=O)Nc2ccc(-n3ccccc3=O)cc2F)C1
3,100%,O=C(Nc1ccc(Cl)cn1)[C@H]1CN(CC(F)F)C[C@@H]1C(=O)Nc1ccc(-n2ccccc2=O)cc1F
4,100%,COC(=O)N1C[C@H](C(=O)Nc2ccc(Cl)cn2)[C@@H](C(=O)Nc2ccc(-n3ccccc3=O)cc2F)C1

# Tested on: not listed separately
# Assay: Half life in po dosed rat
# Assay type: ADME, organism-based
# Conditions: in vivo
row,half-life,Structure (SMILES)
1,2.9 h,CC(C)N1C[C@H](C(=O)Nc2ccc(Cl)cn2)[C@@H](C(=O)Nc2ccc(-n3ccccc3=O)cc2F)C1
2,1.1 h,CCS(=O)(=O)N1C[C@H](C(=O)Nc2ccc(Cl)cn2)[C@@H](C(=O)Nc2ccc(-n3ccccc3=O)cc2F)C1
3,1.3 h,O=C(Nc1ccc(Cl)cn1)[C@H]1CN(CC(F)F)C[C@@H]1C(=O)Nc1ccc(-n2ccccc2=O)cc1F
4,1.5 h,COC(=O)N1C[C@H](C(=O)Nc2ccc(Cl)cn2)[C@@H](C(=O)Nc2ccc(-n3ccccc3=O)cc2F)C1

# Tested on: Rattus norvegicus
# Assay: Dose normalized AUC in po dosed rat
# Assay type: ADME, organism-based
# Conditions: in vivo
row,AUC,Structure (SMILES)
1,900 ng·h/mL,CC(C)N1C[C@H](C(=O)Nc2ccc(Cl)cn2)[C@@H](C(=O)Nc2ccc(-n3ccccc3=O)cc2F)C1
2,3300 ng·h/mL,CCS(=O)(=O)N1C[C@H](C(=O)Nc2ccc(Cl)cn2)[C@@H](C(=O)Nc2ccc(-n3ccccc3=O)cc2F)C1
3,10000 ng·h/mL,O=C(Nc1ccc(Cl)cn1)[C@H]1CN(CC(F)F)C[C@@H]1C(=O)Nc1ccc(-n2ccccc2=O)cc1F
4,2300 ng·h/mL,COC(=O)N1C[C@H](C(=O)Nc2ccc(Cl)cn2)[C@@H](C(=O)Nc2ccc(-n3ccccc3=O)cc2F)C1

# Tested on: Cynomolgus monkey
# Assay: Dose normalized AUC in po dosed cynomolgus monkey
# Assay type: ADME, organism-based, Macaca fascicularis
# Conditions: in vivo
row,AUC,Structure (SMILES)
1,820 ng·h/mL,CC(C)N1C[C@H](C(=O)Nc2ccc(Cl)cn2)[C@@H](C(=O)Nc2ccc(-n3ccccc3=O)cc2F)C1
2,230 ng·h/mL,CCS(=O)(=O)N1C[C@H](C(=O)Nc2ccc(Cl)cn2)[C@@H](C(=O)Nc2ccc(-n3ccccc3=O)cc2F)C1
3,1700 ng·h/mL,O=C(Nc1ccc(Cl)cn1)[C@H]1CN(CC(F)F)C[C@@H]1C(=O)Nc1ccc(-n2ccccc2=O)cc1F
4,6700 ng·h/mL,COC(=O)N1C[C@H](C(=O)Nc2ccc(Cl)cn2)[C@@H](C(=O)Nc2ccc(-n3ccccc3=O)cc2F)C1

# Tested on: not listed separately
# Assay: Oral bioavailability in cynomolgus monkey
# Assay type: ADME, organism-based, Macaca fascicularis
# Conditions: in vivo
row,bioavailability,Structure (SMILES)
1,80%,CC(C)N1C[C@H](C(=O)Nc2ccc(Cl)cn2)[C@@H](C(=O)Nc2ccc(-n3ccccc3=O)cc2F)C1
2,9%,CCS(=O)(=O)N1C[C@H](C(=O)Nc2ccc(Cl)cn2)[C@@H](C(=O)Nc2ccc(-n3ccccc3=O)cc2F)C1
3,65%,O=C(Nc1ccc(Cl)cn1)[C@H]1CN(CC(F)F)C[C@@H]1C(=O)Nc1ccc(-n2ccccc2=O)cc1F
4,64%,COC(=O)N1C[C@H](C(=O)Nc2ccc(Cl)cn2)[C@@H](C(=O)Nc2ccc(-n3ccccc3=O)cc2F)C1

# Tested on: not listed separately
# Assay: Dissociation constant, pKa of the compound
# Assay type: physicochemical
# Conditions: not given
row,pKa,Structure (SMILES)
1,7.55,CC(C)N1C[C@H](C(=O)Nc2ccc(Cl)cn2)[C@@H](C(=O)Nc2ccc(-n3ccccc3=O)cc2F)C1
2,2.99,CCS(=O)(=O)N1C[C@H](C(=O)Nc2ccc(Cl)cn2)[C@@H](C(=O)Nc2ccc(-n3ccccc3=O)cc2F)C1
3,4.79,O=C(Nc1ccc(Cl)cn1)[C@H]1CN(CC(F)F)C[C@@H]1C(=O)Nc1ccc(-n2ccccc2=O)cc1F
4,2.75,COC(=O)N1C[C@H](C(=O)Nc2ccc(Cl)cn2)[C@@H](C(=O)Nc2ccc(-n3ccccc3=O)cc2F)C1

# Tested on: not listed separately
# Assay: Volume of distribution at steady state in cynomolgus monkey
# Assay type: ADME, organism-based, Macaca fascicularis
# Conditions: in vivo, read-out: Vdss
row,Vd,Structure (SMILES)
1,1.6 L/kg,CC(C)N1C[C@H](C(=O)Nc2ccc(Cl)cn2)[C@@H](C(=O)Nc2ccc(-n3ccccc3=O)cc2F)C1
2,0.46 L/kg,CCS(=O)(=O)N1C[C@H](C(=O)Nc2ccc(Cl)cn2)[C@@H](C(=O)Nc2ccc(-n3ccccc3=O)cc2F)C1
3,0.54 L/kg,O=C(Nc1ccc(Cl)cn1)[C@H]1CN(CC(F)F)C[C@@H]1C(=O)Nc1ccc(-n2ccccc2=O)cc1F
4,0.44 L/kg,COC(=O)N1C[C@H](C(=O)Nc2ccc(Cl)cn2)[C@@H](C(=O)Nc2ccc(-n3ccccc3=O)cc2F)C1

# Tested on: not listed separately
# Assay: Half life in cynomolgus monkey
# Assay type: ADME, organism-based, Macaca fascicularis
# Conditions: in vivo
row,half-life,Structure (SMILES)
1,4.7 h,CC(C)N1C[C@H](C(=O)Nc2ccc(Cl)cn2)[C@@H](C(=O)Nc2ccc(-n3ccccc3=O)cc2F)C1
2,1.9 h,CCS(=O)(=O)N1C[C@H](C(=O)Nc2ccc(Cl)cn2)[C@@H](C(=O)Nc2ccc(-n3ccccc3=O)cc2F)C1
3,6.3 h,O=C(Nc1ccc(Cl)cn1)[C@H]1CN(CC(F)F)C[C@@H]1C(=O)Nc1ccc(-n2ccccc2=O)cc1F
4,5 h,COC(=O)N1C[C@H](C(=O)Nc2ccc(Cl)cn2)[C@@H](C(=O)Nc2ccc(-n3ccccc3=O)cc2F)C1
